{"source": "paper PMC4912218", "about": "“Targeted metabolomics of Gammarus pulex following controlled exposures to selected pharmaceuticals in water” (The Science of the Total Environment, 2016)", "key": {"[1]": {"design": "method as in Drugbank", "settings": "ref Drugbank, cited from earlier work"}, "in vivo": {"test": "in vivo", "settings": "in vivo", "protocol": "(§1) From these toxicity profiles the NOAEL and the LOAEL were determined. Exposure experiments were performed in Pyrex® beakers, each containing 200 mL of AFW at 15 °C and ten adult animals (> 5 mg wet weight, ww). Live/dead animals were counted after 24 h by gently prodding and observing movement of appendages. The pharmaceutical concentrations tested were in the range of 0.01 to 250 mg L^− 1. […] Concentrations where 100, 50 and 0% of the animals died were repeated in duplicate or triplicate."}, "Gammarus pulex": {"tested_on": "Gammarus pulex", "test": "in vivo", "settings": "24 h, AFW, 15 °C; * = LC50 is above solubility", "protocol": "as §1"}}, "note": "Like-named read-outs stand apart in the source and are kept apart here.", "data": [{"smiles": "CNC(=C[N+](=O)[O-])NCCSCc1ccc(CN(C)C)o1", "note": "[Ranitidine]", "values": [{"measurement": "Water solubility", "setting": "[1]", "result": 1800, "unit": "mg/L"}, {"measurement": "LC50 at 24 h", "setting": "in vivo; Gammarus pulex", "result": "> 250", "unit": "µg/mL"}]}, {"smiles": "O=C(O)c1ccccc1O", "note": "[Salicylic acid]", "values": [{"measurement": "Water solubility", "setting": "[1]", "result": 1800, "unit": "mg/L"}, {"measurement": "LC50 at 24 h", "setting": "in vivo", "result": 29.3, "unit": "µg/mL"}]}, {"smiles": "O=C(Nc1ccc(Cl)cc1)Nc1ccc(Cl)c(Cl)c1", "note": "[Triclocarban]", "values": [{"measurement": "Water solubility", "setting": "[1]; 26 °C", "result": "10 (26 ºC) mg L^-1"}, {"measurement": "LC50 at 24 h", "setting": "in vivo", "result": "> 10", "unit": "µg/mL"}]}, {"smiles": "COc1cc(Cc2cnc(N)nc2N)cc(OC)c1OC", "note": "[Trimethoprin]", "values": [{"measurement": "Water solubility", "setting": "[1]", "result": 400, "unit": "mg/L"}, {"measurement": "24 h- LC50 G. pulex (present study)", "setting": "Gammarus pulex", "result": ">200", "unit": "µg/mL"}]}, {"smiles": "CC(=O)CC(c1ccccc1)c1c(O)c2ccccc2oc1=O", "note": "(stereo not drawn) [Warfarin]", "values": [{"measurement": "LC50 at 24 h", "setting": "in vivo", "result": "> 17", "unit": "µg/mL"}]}]}
